The results in this text go back to ChEMBL document CHEMBL1201862, “PubChem BioAssay data set” (2004).

Test [1] in a line: lung carcinoma cell viability loss – CellTiter-Glo luminescence, dry powder, set 17, dose response (AID 1117284). The settings on record: A549. Format: functional, cell-based. (Cellular ATP, detected with luciferase, serves as a proxy for viable cell number.)
A further test concerns the target Paired box protein Pax-8 (Homo sapiens, UniProt Q06710). The test is described as follows: PAX8 transcriptional activity inhibition in RMG-I – RMG-I cells, luciferase, cherry-pick, dose response (AID 687027).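 Further: luciferase reporter driven by Pax8 target thyroperoxidase promoter measured by SteadyGlo luminescence.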 Type of test: functional, cell-based.
A short description of test [2]: general mammalian cell viability loss – inhibitor set, cherry-pick, set 2, cytotoxicity control for miR-122 modulator project, dose response (AID 720697). Format: functional, cell-based.
Test [3] is described as follows: general mammalian cell viability loss – activator set, cherry-pick, cytotoxicity control for miR-122 modulator project, dose response (AID 720690).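 Further: HEK293T human cells scored for general mammalian cytotoxicity.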 Type of test: functional, cell-based.
Test [4] can be described thus: general cell-killing toxicity readout – plate reader, dry powder samples, cytotoxicity control for PAX8 inhibitor project, dose response (AID 743021). Type of test: functional, cell-based.
Test [5] is described as follows: viability loss in A549 lung cells – cell-based, 24 h, CellTiter-Glo luminescence, cherry-picks, cytotoxicity control, dose response (AID 1053115). Type of test: functional. Conditions: A549, 24 h.
The nature of test [6]: OVCAR8 cell viability loss – plate reader, dry powder samples, PAX8 project, dose response (AID 743197). Type of test: functional, cell-based. Conditions: OVCAR-8.
Test [7] in a line: Dd2 malaria parasite growth inhibition potency – SYBR Green, dry powder samples, dose response (AID 1159566).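 Further: potency for growth inhibition with lower SYBR green DNA signal.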 Type of test: functional, cell-based.
The nature of test [8]: growth inhibition of yeast DHODH-expressing 3D7 parasites – SYBR Green, dry powder samples, dose response (AID 1159570).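 Further: parasite growth measured after 72 hours of compound exposure.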 Format: functional, cell-based.
A short description of test [9]: Plasmodium falciparum Dd2 Sybr green parasite growth Measured in Cell-Based and Microorganism Combination System Using Plate Reader - 2153-01_Inhibitor_Dose_DryPowder_Activity_Set3. Type of test: functional.
The nature of test [10]: Dd2 parasite growth inhibition in erythrocytes – SYBR Green, dry powder samples, set 9, dose response (AID 1159568). Type of test: functional, cell-based.
The nature of test [11]: growth inhibition of PfATP4-mutant resistant parasites – NITD609-resistant line, SYBR Green, dry powder, dose response (AID 1159571).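 Further: parasites synchronized at ring stage by sorbitol before testing.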 Type of test: functional, cell-based.
Test [12] in a line: P. falciparum Dd2 growth inhibitors, dose response, SYBR Green, cherry-picked samples (AID 1159567). Format: functional, cell-based.
A short description of test [13]: toxicity to human HepG2 hepatoma cells – cell-based, plate reader, dry powder samples, cytotoxicity control, dose response (AID 1159569).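 Further: inhibitor potency with signal falling toward the positive control level.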 Type of test: functional.
Test [14] can be described thus: toxicity to human hepatoma HepG2 cells – cell-based, cherry-picked samples, cytotoxicity control, dose response (AID 1159577). Type of test: functional.

Calls of active or inactive are those of the source.

The AC50 is the midpoint of the concentration-response curve, whichever way the signal moves.

Paired box protein Pax-8, sequence (Q06710 whole entry): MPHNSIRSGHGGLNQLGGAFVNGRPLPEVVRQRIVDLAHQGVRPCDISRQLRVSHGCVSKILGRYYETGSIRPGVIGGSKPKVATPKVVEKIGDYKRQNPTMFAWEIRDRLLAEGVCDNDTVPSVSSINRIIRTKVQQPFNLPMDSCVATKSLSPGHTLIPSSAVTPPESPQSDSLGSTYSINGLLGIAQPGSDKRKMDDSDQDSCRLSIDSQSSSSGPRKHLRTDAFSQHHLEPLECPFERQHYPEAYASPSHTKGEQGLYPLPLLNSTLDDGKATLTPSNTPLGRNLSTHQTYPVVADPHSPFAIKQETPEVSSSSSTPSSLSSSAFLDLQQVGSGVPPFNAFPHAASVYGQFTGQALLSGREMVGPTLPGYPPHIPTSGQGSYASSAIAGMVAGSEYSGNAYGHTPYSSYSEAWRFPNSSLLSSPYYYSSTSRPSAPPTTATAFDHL

On to `C[C@H](O)C#Cc1ccc2c(c1)O[C@@H](CN(C)Cc1ccc(-c3ccccc3)cc1)[C@@H](C)CN([C@H](C)CO)S2(=O)=O`, for which the AC50 is > 52 µM (inactive) in test [1]; 4.57 µM (active) at Paired box protein Pax-8; 21.6 µM (active) in test [2]; 22.8 µM (active) in test [3]; 46.3 µM (active) in [4]; 48.6 µM (active) in test [5]. Moreover, the AC50 in test [6] was > 70 µM (inactive).

`COc1ccc(-c2ccc([C@H]3[C@@H](C#N)N(C(=O)NC(C)C)[C@H]3CO)cc2)cc1`: the AC50 in [7] was 0.559 µM (active); in [8], 3.98 µM (active); in test [9], 1.86 µM (active); in test [10] it was 1.2 µM (active); in test [11], 0.874 µM (active); in [12] it was 0.89 µM (active). The AC50 in test [13] was 80.6 µM (active); in test [14], 3.33 µM (active).
